From US4190661A, “Pyrazolo-quinolines, compositions and pharmaceutical preparations” (Laboratoires Chauvin-Blache, priority 1977, dated 1980) come the findings set out here.

One data set concerns Escherichia coli. Kind of data set: antibacterial activity in vitro, dilution in liquid medium method (MIC/MBC). It is filed as cell-based. Conditions: for MIC: read-out: minimum inhibiting concentration (MIC); for MBC: read-out: minimum bactericidal concentration (MBC). The procedure: (§1) The nalidixic acid solution and the solutions containing compounds of the formula (I) were prepared in distilled water with addition of sodium hydroxide.
(§2) The strains used are all obtained from the hospital where they were recently isolated from urinary infections (except Salmonella para B and Listeria which are obtained from a collection):
(§3) Different dilutions of 24 hour cultures in physiological saline were used, depending on the respective growth rate of each germ:
(§4) The test is conducted in phenol red glucose broth inoculated with 0.1 ml of the dilution of the germ studied per 3 ml of broth.
(§5) The bactericidal activity was investigated according to the dilution in liquid medium method.
(§6) After 18 hours in an oven at 37° C., the minimum inhibiting concentration (MIC) corresponding to the last tube whose pH remains unmodified was noted.
(§7) The minimum bactericidal concentration (MBC) was investigated by spreading on a dish of agar medium a dosage of material taken from the tubes which have remained clear. The MBC/24 hrs is the lowest concentration for which the survival rate is zero after a contact time of 24 hours.

The subject of a further data set is Klebsiella pneumoniae. The description is as above. It is filed as cell-based. The following applies: read-out: minimum inhibiting concentration (MIC). The procedure: as §1, §2, §3, §4, §5, §6, §7
The subject of another data set is Proteus mirabilis. Described as above. It is filed as cell-based. Conditions: read-out: minimum inhibiting concentration (MIC). How it is done: as §1, §2, §3, §4, §5, §6, §7
The next data set deals with Pseudomonas aeruginosa. Described as above. It is filed as cell-based. Conditions: read-out: minimum inhibiting concentration (MIC). The procedure: as §1, §2, §3, §4, §5, §6, §7
In the next data set the test system is Salmonella para B. The description is as above. It is filed as cell-based. Conditions: for MIC: read-out: minimum inhibiting concentration (MIC). How it is done:
as §1, §2, §3, §4, §5, §6, §7

The next data set relates to Staphylococcus aureus. The description is as above. It is filed as cell-based. The following applies: read-out: minimum inhibiting concentration (MIC). The procedure:
as §1, §2, §3, §4, §5, §6, §7

The test system of another data set is Streptococcus foecalis. The description is as above. It is filed as cell-based. Conditions: read-out: minimum inhibiting concentration (MIC). How it is done:
as §1, §2, §3, §4, §5, §6, §7

The next data set deals with Citrobacter. The data set is described as above. Conditions: read-out: minimum inhibiting concentration (MIC). It is filed as cell-based. How it is done:
as §1, §2, §3, §4, §5, §6, §7

The nature of data set [1]: acute toxicity, graphical method according to Miller and Tainter. The following applies: mouse, in vivo, mice. The source says: Indeed, their LD50 values in mice, as determined by the graphical method according to Miller and Tainter are as follows: […]
The next data set concerns Enterobacter cloacae. Kind of data set: antibacterial activity in vitro, dilution in liquid medium method (MIC/MBC). It is filed as cell-based. The following applies: for MIC: read-out: minimum inhibiting concentration (MIC). The procedure: as §1, §2, §3, §4, §5, §6, §7
A further data set relates to Listeria monocytogenes. Described as above. It is filed as cell-based. Conditions: for MIC: read-out: minimum inhibiting concentration (MIC); for MBC: read-out: minimum bactericidal concentration (MBC). How it is done: as §1, §2, §3, §4, §5, §6, §7
The subject of data set [2] is Enterobacter liquefaciens. The data set is described as above. The following applies: for MIC: read-out: minimum inhibiting concentration (MIC). It is filed as cell-based. How it is done:
as §1, §2
Enterobacter liquefaciens
as §3, §4, §5, §6, §7

Where [3] appears, read: Salmonella para B, 18 hours, 37° C.
The mark [4] stands for this setting: Streptococcus foecalis, 18 hours, 37° C.

Molecules are shown by their SMILES. ≈ marks a conversion by molar mass, not a printed value. Read-outs that look alike come from different tables or passages of the source. A value given as a limit tells only on which side of the number the result lay.

Take `CCn1cc(C(=O)O)c(=O)n2nc3ccccc3c12` [I a, 3-oxo-4-carboxy-6-ethyl-pyrimido[3,2-b]indazole]: the MIC was greater than 100 µg/mL with Escherichia coli (18 hours, 37° C.); greater than 100 µg/mL in the data set with Klebsiella pneumoniae (18 hours, 37° C.); greater than 100 µg/mL in the data set on Proteus mirabilis (18 hours, 37° C.); greater than 100 µg/mL with Pseudomonas aeruginosa (18 hours, 37° C.); greater than 100 µg/mL in the data set on Salmonella para B (setting [3]); greater than 100 µg/mL in the data set on Staphylococcus aureus (18 hours, 37° C.). Further, the MIC with Streptococcus foecalis (setting [4]) is greater than 100 µg/mL.

Take `CCn1cc(C(=O)O)c(=O)c2ccc3[nH]ncc3c21` [I b, 1-ethyl-3-carboxy-4-oxo-pyrazolo[5,4-h]quinoline]: the MIC was greater than 100 µg/mL in the data set on Escherichia coli (18 hours, 37° C.); greater than 100 µg/mL in the data set on Klebsiella pneumoniae (18 hours, 37° C.); greater than 100 µg/mL in the data set with Proteus mirabilis (18 hours, 37° C.); greater than 100 µg/mL in the data set with Pseudomonas aeruginosa (18 hours, 37° C.); greater than 100 µg/mL in the data set on Salmonella para B (setting [3]); greater than 100 µg/mL with Staphylococcus aureus (18 hours, 37° C.). The MIC in the data set with Streptococcus foecalis (setting [4]) is greater than 100 µg/mL.

In the case of `CCn1cc(C(=O)O)c(=O)c2c3cn[nH]c3ccc21` [I c, 1-Ethyl-3-carboxy-4-oxo-pyrazolo[4,5-f]quinoline], the MIC in the data set with Escherichia coli (18 hours, 37° C.) was greater than 10 µg/mL; in the data set with Klebsiella pneumoniae (18 hours, 37° C.), greater than 10 µg/mL; in the data set on Proteus mirabilis (18 hours, 37° C.), greater than 10 µg/mL; in the data set on Pseudomonas aeruginosa (18 hours, 37° C.) it was greater than 10 µg/mL; in the data set on Staphylococcus aureus (18 hours, 37° C.), greater than 10 µg/mL; with Streptococcus foecalis (setting [4]), greater than 10 µg/mL.

Consider `CCn1cc(C(=O)O)c(=O)c2c3cnn(Cc4ccccc4)c3ccc21` [I d, 1-ethyl-3-carboxy-4-oxo-7-benzyl-pyrazolo[4,5-f]quinoline], for which the MIC in the data set with Proteus mirabilis (18 hours, 37° C.) is greater than 10 µg/mL; in the data set on Pseudomonas aeruginosa (18 hours, 37° C.), greater than 10 µg/mL; in the data set with Staphylococcus aureus (18 hours, 37° C.), greater than 10 µg/mL; in the data set on Streptococcus foecalis (setting [4]), greater than 10 µg/mL.

Regarding `C=Cn1cc(C(=O)O)c(=O)c2c3[nH]ncc3ccc21` [I e', 1-Vinyl-3-carboxy-4-oxo-pyrazolo[5,4-f]quinoline], the MIC in the data set with Citrobacter (18 hours, 37° C.) is greater than 10 µg/mL; with Escherichia coli (18 hours, 37° C.), 5 µg/mL (≈ 19.6 µM); in the data set on Klebsiella pneumoniae (18 hours, 37° C.) it was greater than 10 µg/mL; in the data set on Proteus mirabilis (18 hours, 37° C.), greater than 10 µg/mL; in the data set with Pseudomonas aeruginosa (18 hours, 37° C.), greater than 10 µg/mL; in the data set with Staphylococcus aureus (18 hours, 37° C.) it was greater than 10 µg/mL. For the same compound, the MIC with Streptococcus foecalis (setting [4]) is greater than 10 µg/mL. Further, the LD50 in [1] (ip, intraperitoneal route) was 2800 mg/kg; in data set [1] (oral route), greater than 5000 mg/kg.

`CCn1cc(C(=O)O)c(=O)c2c3[nH]ncc3ccc21` [I e]: the MIC in the data set with Citrobacter (18 hours, 37° C.) was greater than 10 µg/mL; with Enterobacter cloacae (18 hours, 37° C.), greater than 10 µg/mL; in the data set on Escherichia coli (18 hours, 37° C.), 5 µg/mL (≈ 19.4 µM); in the data set on Klebsiella pneumoniae (18 hours, 37° C.), greater than 10 µg/mL; with Listeria monocytogenes (18 hours, 37° C.), 10 µg/mL (≈ 38.9 µM); with Proteus mirabilis (18 hours, 37° C.) it was greater than 10 µg/mL. The MIC was greater than 10 µg/mL in the data set on Pseudomonas aeruginosa (18 hours, 37° C.); greater than 10 µg/mL with Salmonella para B (setting [3]); greater than 10 µg/mL with Staphylococcus aureus (18 hours, 37° C.); greater than 10 µg/mL in the data set on Streptococcus foecalis (setting [4]); greater than 10 µg/mL in [2] (Enterobacter liquefaciens, 18 hours, 37° C.). For the same compound, the MBC in the data set on Escherichia coli (contact time 24 hours) and in the data set on Listeria monocytogenes (contact time 24 hours) was 100 µg/mL (≈ 389 µM) each time.

For the compound `CCn1cc(C(=O)O)c(=O)c2c1ccc1cnn(C)c12` [I f, 1-ethyl-3-carboxy-4-oxo-5-methyl-pyrazolo[5,4-f]uinoline], the MIC in the data set with Proteus mirabilis (18 hours, 37° C.) is greater than 10 µg/mL; with Pseudomonas aeruginosa (18 hours, 37° C.), greater than 10 µg/mL; in the data set with Staphylococcus aureus (18 hours, 37° C.), greater than 10 µg/mL; in the data set on Streptococcus foecalis (setting [4]) it was greater than 10 µg/mL.

With `CCn1cc(C(=O)O)c(=O)c2c3nn(C)cc3ccc21` [I g, 1-ethyl-3-carboxy-4-oxo-6-methyl-pyrazolo[3,4-f]uinoline], the MIC in the data set on Klebsiella pneumoniae (18 hours, 37° C.) is greater than 100 µg/mL; in the data set with Proteus mirabilis (18 hours, 37° C.), greater than 100 µg/mL; in the data set on Pseudomonas aeruginosa (18 hours, 37° C.), greater than 100 µg/mL; with Staphylococcus aureus (18 hours, 37° C.), greater than 100 µg/mL; with Streptococcus foecalis (setting [4]), greater than 100 µg/mL.

Consider `CCn1cc(C(=O)O)c(=O)c2ccc3cnn(CC)c3c21` [I h, 1,9-diethyl-3-carboxy-4-oxo-pyrazolo[4,5-h]quinoline], for which the MIC with Klebsiella pneumoniae (18 hours, 37° C.) was greater than 10 µg/mL; with Proteus mirabilis (18 hours, 37° C.), greater than 10 µg/mL; in the data set with Pseudomonas aeruginosa (18 hours, 37° C.), greater than 10 µg/mL; with Staphylococcus aureus (18 hours, 37° C.), greater than 10 µg/mL; in the data set on Streptococcus foecalis (setting [4]), greater than 10 µg/mL.

In the case of `CCn1cc(C(=O)O)c(=O)c2c3[nH]ncc3ccc21` [Ie], the LD50 in data set [1] (ip, intraperitoneal route) is 2500 mg/kg; in data set [1] (oral route) it was 4700 mg/kg.

For `CCn1cc(C(=O)O)c(=O)c2ccc(C)nc21` [Nalidixic acid, nalidixic acid, reference compound], the MIC in the data set with Citrobacter (18 h) is greater than 200 µg/mL; in the data set with Enterobacter cloacae (18 h), 50 µg/mL (≈ 215 µM); in the data set on Escherichia coli (18 h) it was 5 µg/mL (≈ 21.5 µM); with Klebsiella pneumoniae (18 h), greater than 200 µg/mL; in the data set on Listeria monocytogenes (18 h), 5 µg/mL (≈ 21.5 µM); with Proteus mirabilis (18 h), greater than 200 µg/mL. Besides, the MIC in the data set on Pseudomonas aeruginosa (18 h) is greater than 200 µg/mL; with Salmonella para B (Salmonella, 18 h), 5 µg/mL (≈ 21.5 µM); in the data set on Staphylococcus aureus (18 h), greater than 200 µg/mL; with Streptococcus foecalis (Streptococcus, 18 h) it was greater than 200 µg/mL; in data set [2] (Enterobacter, 18 h), 25 µg/mL (≈ 108 µM). Further, the MBC in the data set on Enterobacter cloacae (24 h, read-out: minimum bactericidal concentration (MBC)) stood at 100 µg/mL (≈ 431 µM); in the data set on Escherichia coli (24 h), 100 µg/mL (≈ 431 µM); in the data set with Listeria monocytogenes (24 h), 100 µg/mL (≈ 431 µM); in the data set on Salmonella para B (Salmonella, 24 h, read-out: minimum bactericidal concentration (MBC)) it was 100 µg/mL (≈ 431 µM); in data set [2] (Enterobacter, 24 h, read-out: minimum bactericidal concentration (MBC)), 100 µg/mL (≈ 431 µM).

One may read the LD50 as the dose expected to kill half of the subjects tested. Read a high LD50 as lower toxicity.
